Measured values taken from PubChem BioAssay AID248 (DTP/NCI, 2004).
Where “and” joins values, the source holds several entries; their conditions need not be identical. Equal entries are not always repeated. Toxic doses and inconclusive results are not listed. Cut-off read from the data, not from the text of the source: active = T/C of 150% or more; inactive = T/C below 125%.

Tested on: L1210 leukemia ip in BDF1 mice, survival T/C
Assay: NCI In Vivo Anticancer Drug Screen. Data for tumor model L1210 Leukemia (intraperitoneal) in B6D2F1 (BDF1) mice
Conditions: endpoint: mean survival time, higher = longer survival
Summary of the method: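 Transplantable tumor model; survival measured in treated vs vehicle control mice. Value = treated/control.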

[1] = dose: 400.0 mg/kg/injection, schedule: Q04DX002 (ip), vehicle: Klucel (hydroxypropylcellulose) (HPC)
[2] = dose: 100.0 mg/kg/injection, schedule: Q01DX009 (ip), vehicle: Klucel (hydroxypropylcellulose) (HPC)
[3] = dose: 100.0 mg/kg/injection, schedule: Q04DX003 (ip), vehicle: Klucel (hydroxypropylcellulose) (HPC)
[4] = dose: 200.0 mg/kg/injection, schedule: Q01DX009 (ip), vehicle: Klucel (hydroxypropylcellulose) (HPC)
[5] = dose: 200.0 mg/kg/injection, schedule: Q04DX003 (ip), vehicle: Klucel (hydroxypropylcellulose) (HPC)
[6] = dose: 400.0 mg/kg/injection, schedule: Q01DX009 (ip), vehicle: Klucel (hydroxypropylcellulose) (HPC)
[7] = dose: 50.0 mg/kg/injection, schedule: Q01DX001 (ip), vehicle: carboxymethylcellulose (CMC)
[8] = dose: 100.0 mg/kg/injection, schedule: Q01DX001 (ip), vehicle: carboxymethylcellulose (CMC)
[9] = dose: 25.0 mg/kg/injection, schedule: Q01DX009 (ip), vehicle: Klucel (hydroxypropylcellulose) (HPC)
[10] = dose: 50.0 mg/kg/injection, schedule: Q01DX009 (ip), vehicle: Klucel (hydroxypropylcellulose) (HPC)
[11] = dose: 100.0 mg/kg/injection, schedule: Q04DX002 (ip), vehicle: Klucel (hydroxypropylcellulose) (HPC)
[12] = dose: 200.0 mg/kg/injection, schedule: Q04DX002 (ip), vehicle: Klucel (hydroxypropylcellulose) (HPC)

Measured: T/C

CC1=C(O)C(=O)C=C2C1=CC=C1[C@@]2(C)CC[C@@]2(C)[C@@H]3C[C@](C)(C(=O)O)CC[C@]3(C)CC[C@]12C
inactive: dose: 5.0 mg/kg/injection, schedule: Q01DX001 (ip), vehicle: carboxymethylcellulose (CMC) 95 % of control and 100 % of control | dose: 10.0 mg/kg/injection, schedule: Q01DX001 (ip), vehicle: carboxymethylcellulose (CMC) 97 % of control | dose: 20.0 mg/kg/injection, schedule: Q01DX001 (ip), vehicle: carboxymethylcellulose (CMC) 103 % of control and 89 % of control | dose: 40.0 mg/kg/injection, schedule: Q01DX001 (ip), vehicle: carboxymethylcellulose (CMC) 122 % of control

CC(=O)Oc1ccc([N+](=O)[O-])cc1C(OC(C)=O)OC(C)=O
inactive: dose: 55.0 mg/kg/injection, schedule: Q01DX Z (ip), vehicle: methylcellulose (MC) 90 % of control | dose: 83.0 mg/kg/injection, schedule: Q01DX Z (ip), vehicle: methylcellulose (MC) 96 % of control | dose: 125.0 mg/kg/injection, schedule: Q01DX Z (ip), vehicle: methylcellulose (MC) 93 % of control

CCS(=O)(=O)C(S(=O)(=O)CC)S(=O)(=O)CC
inactive: dose: 100.0 mg/kg/injection, schedule: Q01DX001 (ip), vehicle: Klucel (hydroxypropylcellulose) (HPC) 102 % of control | dose: 200.0 mg/kg/injection, schedule: Q01DX001 (ip), vehicle: Klucel (hydroxypropylcellulose) (HPC) 91 % of control | dose: 400.0 mg/kg/injection, schedule: Q01DX001 (ip), vehicle: Klucel (hydroxypropylcellulose) (HPC) 96 % of control

CC12c3ccccc3C(C)(c3c1ccc1ccccc31)C1C(=O)OC(=O)C12 (stereo not drawn)
inactive: dose: 25.6 mg/kg/injection, schedule: Q04DX002 (ip), vehicle: Klucel (hydroxypropylcellulose) (HPC) 88 % of control | dose: 64.0 mg/kg/injection, schedule: Q04DX002 (ip), vehicle: Klucel (hydroxypropylcellulose) (HPC) 92 % of control | dose: 160.0 mg/kg/injection, schedule: Q04DX002 (ip), vehicle: Klucel (hydroxypropylcellulose) (HPC) 88 % of control | [1] 98 % of control

O=C1C2C(C(=O)N1c1ccc(O)cc1)C1c3ccccc3C2C2CCCCN21 (stereo not drawn)
inactive: dose: 12.5 mg/kg/injection, schedule: Q04DX003 (ip), vehicle: saline 102 % of control | dose: 25.0 mg/kg/injection, schedule: Q04DX003 (ip), vehicle: saline 103 % of control | dose: 50.0 mg/kg/injection, schedule: Q04DX003 (ip), vehicle: saline 102 % of control | dose: 100.0 mg/kg/injection, schedule: Q04DX003 (ip), vehicle: saline 100 % of control

CC(C)(C)C1CCC(NC(=O)c2ccccc2)CC1 (stereo not drawn)
inactive: [2] 108 % of control | [3] 102 % of control | [4] 109 % of control | [5] 98 % of control | [6] 86 % of control | dose: 400.0 mg/kg/injection, schedule: Q04DX003 (ip), vehicle: Klucel (hydroxypropylcellulose) (HPC) 100 % of control

O=NN(CCCl)C(=O)Nc1ccccc1NC(=O)N(CCCl)N=O
inactive: dose: 4.0 mg/kg/injection, schedule: Q01DX001 (ip), vehicle: carboxymethylcellulose (CMC) 122 % of control

CC(=O)Oc1cc(-c2ccccc2)c(OC(C)=O)cc1-c1ccccc1
inactive: dose: 25.0 mg/kg/injection, schedule: Q01DX009 (ip), vehicle: water 96 % of control | dose: 50.0 mg/kg/injection, schedule: Q01DX009 (ip), vehicle: water 101 % of control | dose: 100.0 mg/kg/injection, schedule: Q01DX009 (ip), vehicle: water 94 % of control | dose: 200.0 mg/kg/injection, schedule: Q01DX009 (ip), vehicle: water 101 % of control | dose: 400.0 mg/kg/injection, schedule: Q01DX009 (ip), vehicle: water 100 % of control

Cc1cc(Br)c[nH]c1=O
inactive: dose: 100.0 mg/kg/injection, schedule: Q04DX003 (ip), vehicle: saline with Tween-80 98 % of control | dose: 200.0 mg/kg/injection, schedule: Q04DX003 (ip), vehicle: saline with Tween-80 98 % of control | dose: 400.0 mg/kg/injection, schedule: Q04DX003 (ip), vehicle: saline with Tween-80 102 % of control

CCCCCCCCCCCC[As](=O)(O)O
inactive: [7] 96 % of control | [8] 93 % of control

O=C(CCl)OCCI
inactive: dose: 6.25 mg/kg/injection, schedule: Q01DX009 (ip), vehicle: acetone 97 % of control | dose: 12.5 mg/kg/injection, schedule: Q01DX009 (ip), vehicle: acetone 95 % of control | dose: 25.0 mg/kg/injection, schedule: Q01DX009 (ip), vehicle: acetone 90 % of control | dose: 25.0 mg/kg/injection, schedule: Q04DX003 (ip), vehicle: acetone 99 % of control | dose: 35.0 mg/kg/injection, schedule: Q01DX009 (ip), vehicle: acetone 98 % of control | dose: 55.0 mg/kg/injection, schedule: Q01DX009 (ip), vehicle: acetone 90 % of control | dose: 80.0 mg/kg/injection, schedule: Q01DX009 (ip), vehicle: acetone 97 % of control | dose: 100.0 mg/kg/injection, schedule: Q01DX001 (ip), vehicle: acetone 97 % of control

COc1cc([N+](=O)[O-])ccc1NC(=O)NCCc1ccc(OC)c(OC)c1
inactive: [2] 93 % of control | [4] 96 % of control | [6] 100 % of control

NNC(=S)NCCc1ccccc1
inactive: [9] 101 % of control | [10] 105 % of control

CCOC(=O)c1ccc(=O)[nH]c1.[Ag]
inactive: dose: 6.25 mg/kg/injection, schedule: Q01DX009 (ip), vehicle: Klucel (hydroxypropylcellulose) (HPC) 94 % of control | dose: 12.5 mg/kg/injection, schedule: Q01DX009 (ip), vehicle: Klucel (hydroxypropylcellulose) (HPC) 90 % of control | [9] 90 % of control | [10] 86 % of control | [3] 95 % of control | [5] 92 % of control

CC(C)c1ccc(-n2c(=S)[nH]c3ccccc3c2=O)cc1
inactive: dose: 100.0 mg/kg/injection, schedule: Q04DX002 (ip), vehicle: saline 107 % of control | dose: 200.0 mg/kg/injection, schedule: Q04DX002 (ip), vehicle: saline 93 % of control | dose: 400.0 mg/kg/injection, schedule: Q04DX002 (ip), vehicle: saline 104 % of control

COc1ccc([N+](=O)[O-])cc1NC(=O)Oc1ccc(F)cc1Cl
inactive: [10] 108 % of control | [2] 111 % of control | [4] 90 % of control

Nc1ccccc1S.[Ag]
inactive: dose: 50.0 mg/kg/injection, schedule: Q01DX001 (ip), vehicle: saline 95 % of control | dose: 100.0 mg/kg/injection, schedule: Q01DX001 (ip), vehicle: saline 86 % of control | dose: 200.0 mg/kg/injection, schedule: Q01DX001 (ip), vehicle: saline 91 % of control | dose: 400.0 mg/kg/injection, schedule: Q01DX001 (ip), vehicle: saline 91 % of control

O=C(O)C(=O)Nc1ncccc1C(=O)O
inactive: [11] 114 % of control | [12] 100 % of control | [1] 103 % of control

CC1(C)OCC(C2OC(c3ccccc3)OC(CO)C2O)O1 (stereo not drawn)
inactive: dose: 12.5 mg/kg/injection, schedule: Q04DX002 (ip), vehicle: saline with Tween-80 87 % of control | dose: 25.0 mg/kg/injection, schedule: Q04DX002 (ip), vehicle: saline with Tween-80 101 % of control | dose: 50.0 mg/kg/injection, schedule: Q04DX002 (ip), vehicle: saline with Tween-80 100 % of control

Cc1ccc(NC(=O)C(c2ccc(Cl)cc2)c2ccc(Cl)cc2)cc1
inactive: [11] 96 % of control | [12] 100 % of control | [1] 96 % of control

O=c1oc2c([N+](=O)[O-])cc([N+](=O)[O-])cc2c2ccccc12
inactive: [7] 105 % of control | [8] 94 % of control | dose: 200.0 mg/kg/injection, schedule: Q01DX001 (ip), vehicle: carboxymethylcellulose (CMC) 100 % of control | dose: 400.0 mg/kg/injection, schedule: Q01DX001 (ip), vehicle: carboxymethylcellulose (CMC) 92 % of control

COc1ccccc1NC(=O)NC1CCCCC1
inactive: [2] 100 % of control | [4] 100 % of control | [6] 102 % of control

O=S(=O)(F)c1cc(Cl)ccc1O
inactive: [11] 115 % of control | [12] 115 % of control | [1] 105 % of control

N#Cc1nc2nc(C(F)(F)F)[nH]c2nc1C#N
inactive: dose: 12.5 mg/kg/injection, schedule: Q01DX009 (ip), vehicle: saline with Tween-80 101 % of control | dose: 12.5 mg/kg/injection, schedule: Q04DX003 (ip), vehicle: saline with Tween-80 120 % of control | dose: 25.0 mg/kg/injection, schedule: Q01DX009 (ip), vehicle: saline with Tween-80 103 % of control | dose: 25.0 mg/kg/injection, schedule: Q04DX003 (ip), vehicle: saline with Tween-80 103 % of control | dose: 50.0 mg/kg/injection, schedule: Q01DX009 (ip), vehicle: saline with Tween-80 93 % of control
